Results reported in US20080200467A1, “SOLUBLE EPOXIDE HYDROLASE INHIBITORS” (Arete Therapeutics, Inc., priority 2006, published 2008).
Blank lines part the entries; values can stand above or below the compound they belong to.

Legend:
[1] = test system: soluble epoxide hydrolase (sEH); experiment: Fluorescent Assay for Mouse and Human Soluble Epoxide Hydrolase (CMNPC substrate); type: biochemical
Description: Fluorescent Assay for Mouse and Human Soluble Epoxide Hydrolase Recombinant mouse sEH (MsEH) and human sEH (HsEH) were produced in a baculovirus expression system as previously reported. Grant et al., J. Biol. Chem., 268:17628-17633 (1993); Beetham et al., Arch. Biochem. Biophys., 305:197-201 (1993). The expressed proteins were purified from cell lysate by affinity chromatography. Wixtrom et al., Anal. Biochem., 169:71-80 (1988). Protein concentration was quantified using the Pierce BCA assay using bovine serum albumin as the calibrating standard. The preparations were at least 97% pure as judged by SDS-PAGE and scanning densitometry. They contained no detectable esterase or glutathione transferase activity which can interfere with the assay. The assay was also evaluated with similar results in crude cell lysates or homogenate of tissues. The IC50s for each inhibitor were according to the following procedure: [drawing 218] […] Jones P. D. et. al.; Analytical Biochemistry 2005; 343: pp. 66-75) Bis/Tris HCl 25 mM pH 7.0 containing 0.1 mg/mL of BSA (buffer […] at 0.25 mM in DMSO. Mother solution of enzyme in buffer A (Mouse sEH at 6 μg/mL and Human sEH at 5 μg/mL). Inhibitor dissolved in DMSO at the appropriate concentration. In a black 96 well plate, fill all the wells with 150 μL of buffer A. Add 2 μL of DMSO in well A2 and A3, and then add 2 μL of inhibitor solution in A1 and A4 through A12. Add 150 μL of buffer A in row A, then mix several time and transfer 150 μL to row B. Repeat this operation up to row H. The 150 μL removed from row H is discarded. Add 20 μL of buffer A in column 1 and 2, then add 20 μL of enzyme solution to column 3 to 12. Incubate the plate for 5 minutes in the plate reader at 30° C. During incubation prepare the working solution of substrate by mixing 3.68 mL of buffer A (4×0.920 mL) with 266 μL (2×133 μL) of substrate solution). At t=0, add 30 μL of working substrate solution with multi-channel pipette labeled “Briggs 303” and start the reading ([S]final: 5 μM). Read with ex: 330 nm (20 nm) and em: 465 nm (20 nm) every 30 second for 10 minutes. The velocities are used to analyze and calculate the IC50s. Tables 4-6 show the activity of compounds when tested with the assay at 50, 500, 5000, 50000, and 500000 nM.

[2] = test system: soluble epoxide hydrolase (sEH); experiment: Fluorescent Assay for Mouse and Human Soluble Epoxide Hydrolase (CMNPC substrate); type: biochemical; settings: Concentration 2000 nM

% Inhibition ([1]; Concentration 5000 nM): 86% | melting point: 106 to 107 °C
SMILES: O=C(Nc1cccc(OCc2ccccc2)c1)C(=O)C12CC3CC(CC(C3)C1)C2 [Compound 13, 2-Adamantan-1-yl-N-(3-benzyloxy-phenyl)-2-oxo-acetamide]

% Inhibition [2]: 23%
SMILES: O=C(CCC12CC3CC(CC(C3)C1)C2)C(=O)NCCc1ccc(OCc2ccccc2)cc1 [Compound 25]

% Inhibition ([1]; Concentration 500 nM): 79% | melting point: 130 to 132 °C
SMILES: O=C(Nc1cccc(OCc2ccccc2)c1)C(O)C12CC3CC(CC(C3)C1)C2 (stereo not drawn) [Compound 110, 2-Adamantan-1-yl-N-(3-benzyloxy-phenyl)-2-hydroxy-acetamide]

% Inhibition ([1]; Concentration 50000 nM): 98% | melting point: 219 to 220 °C
SMILES: O=C(Nc1ccc(-n2ccnc2)cc1)C(O)C12CC3CC(CC(C3)C1)C2 (stereo not drawn) [Compound 119, 2-Adamantan-1-yl-2-hydroxy-N-(4-imidazol-1-yl-phenyl)-acetamide]

% Inhibition [2]: 81%
SMILES: O=C(NCCc1ccc(C(=O)N2CCOCC2)cc1)C(O)CCC12CC3CC(CC(C3)C1)C2 (stereo not drawn) [Compound 157, 4-Adamantan-1-yl-2-hydroxy-N-(4-(morpholine-4-carbonyl)phenethyl)butanamide]

% Inhibition ([1]; Concentration 5000 nM): 90%
SMILES: O=C(O)CCCCCCCCCCCNC(=O)C(O)CC12CC3CC(CC(C3)C1)C2 (stereo not drawn) [Compound 161, 12-(3-Adamantan-1-yl-2-hydroxypropanamido)dodecanoic acid]

% Inhibition ([1]; Concentration 5000 nM): 86%
SMILES: O=C(O)CCCCCCCCCCCNC(=O)C(O)CCC12CC3CC(CC(C3)C1)C2 (stereo not drawn) [Compound 165, 12-(4-Adamantan-1-yl-2-hydroxybutanamido)dodecanoic acid]

Continued, compound first:

SMILES: O=C(O)CCCCCCCCCCCNC(=O)C(O)c1ccc(C(F)(F)F)cc1 (stereo not drawn) [Compound 159, 12-(2-Hydroxy-2-(4-(trifluoromethyl)phenyl)acetamido)dodecanoic acid]
% Inhibition ([1]; Concentration 5000 nM): 86%

SMILES: COC(=O)CCCCCCCCCCCNC(=O)C(O)CC12CC3CC(CC(C3)C1)C2 (stereo not drawn) [Compound 160, Methyl 12-(3-adamantan-1-yl-2-hydroxypropanamido)dodecanoate]
% Inhibition ([1]; Concentration 500 nM): 81%

SMILES: COC(=O)CCCCCCCCCCCNC(=O)C(O)CCc1ccc(C(F)(F)F)cc1 (stereo not drawn) [Compound 162, Methyl 12-(2-hydroxy-4-(4-(trifluoromethyl)phenyl)butanamido)dodecanoate]
% Inhibition ([1]; Concentration 500 nM): 78%

SMILES: O=C(O)CCCCCCCCCCCNC(=O)C(O)CCc1ccc(C(F)(F)F)cc1 (stereo not drawn) [Compound 163, 12-(2-Hydroxy-4-(4-(trifluoromethyl)phenyl)butanamido)dodecanoicacid]
% Inhibition ([1]; Concentration 5000 nM): 89%

SMILES: O=C(O)CCCCCCCCCCCNC(=O)C(O)Cc1ccc(C(F)(F)F)cc1 (stereo not drawn) [Compound 164, 12-(2-Hydroxy-3-(4-(trifluoromethyl)phenyl)propanamido)dodecanoicacid]
% Inhibition ([1]; Concentration 5000 nM): 59%
